Reference: patent publication US11224666B2, “Gadolinium contrast agents, scavenging methods, and scavenging system” (Boston Scientific Scimed, Inc., priority 2018, dated 2022)

Experiment: example reaction demonstrating the sequestration reaction (strained alkyne with azide, in vitro, followed by NMR)
Details: allowed to react with azide-fluor 488 (representing a capture substrate), NMR tube

## OC[C@H]1[C@H]2CCC#CCC[C@@H]12 [(1R,8S,9s)-Bicyclonon-4-yn-9-ylmethanol]
  course of the sequestration (click) reaction: complete before a nuclear magnetic resonance (NMR) tube containing the reaction constituents could be inserted into the probe
